Legend:
Assay type in all cases: in vivo, mouse (Balb/c female)
Thy 1 = assay: Splenocyte cell surface density/distribution (FACS): Thy 1
Protocol: Another (Group B) is injected with 20 μg (±) methyl 11α,16-dihydroxy-16-methyl-9-oxoprosta-5Z,13E-dien-1-oate as in Example 13. […] A 3 cm incision is made with a scalpel above the left hip, and the spleen is cut free from adjoining tissue and placed in a 100 mn plastic culture dish containing 10 ml PBS. The splenic cells are then made into a suspension, by rubbing the spleens between the rough, frosted ends of microscope slides repeatedly until the only remaining particulate matter is connective tissue. Cells are transferred to a 15 ml conical polystyrene tube and centrifuged in a centrifuge at 1200 rpm for 5 minutes. The supernatant is discarded by aspiration and the cell pellet is resuspended in 10 ml PBS, then centrifuged at 1200 rpm for 5 minutes. The supernatant is aspirated and the cell pellet is resuspended in 15 mM Tris, 140 mM Ammonium Chloride, to lyse red blood cells. After incubating at room temperature for 10 minutes the cell suspension is centrifuged at 1200 rpm for 10 minutes. The supernatant is discarded and the cell pellet is resuspended in 10 ml FACS Buffer (PBS containing 0.1% BSA and 0.1% Sodium Azide). The cell suspension is filtered through sterile glass wool plugged in the top of a pasteur pipet. Cells in the flow through are counted using a hemacytometer, then the cell suspension is centrifuged at 1200 rpm for 5 minutes. The supernatant is discarded and the cell pellet is resuspended in a volume of FACS Buffer that will yield 4×10^7 cells/ml. 10 μl (4×10^5 cells) is added to each well of a 96-well V-bottom plate. 25 μl of diluted monoclonal antibody directed against splenocyte cell surface proteins is added to each well: Major Histocompatability Complex (MHC) Class II (M5114, ATCC, Rockville Md.), MHC Class I (M1/42, ATCC), Anti-IgD (JA12.5, ATCC, Rockville, Md.), Thymocyte (Thy)-1 (JIJ, ATCC), B220 (14.8, ATCC), Kappa light chain (187, ATCC), IL-2 Receptor (7D4, ATCC), Lyt-1 (7.313, ATCC) and CD23 (biotinylated B3B4) and incubated on ice for 30 minutes. 100 μl 10% BSA 0.1% sodium azide is added to each well, then the plates are centrifuged at 1200 rpm for 10 minutes. The liquid is removed by aspiration and the cell pellets are resuspended in 100 μl FACS Buffer, and centrifuged at 1200 rpm for 5 minutes. […] Samples are transferred to individual tubes and 10,000 cells are analyzed. Using the Lysis software (Becton Dickinson, Mountain View, Calif.) the mean channel log fluorescence and percent positive cells are determined for the entire cell population. […]

[1] = system: leukocyte membrane proteins; assay: Cell surface density or distribution of leukocyte membrane proteins, overall
IgG1 = assay: Serum IgG1 in anti-IgD stimulated mice (two site sandwich ELISA, Assay B)

Structure (SMILES): CCCCC(C)(O)C/C=C/[C@H]1[C@H](O)CC(=O)[C@@H]1C/C=C\CCCC(=O)OC (mixture of isomers) [(±) methyl 11α,16-dihydroxy-16-methyl-9-oxoprosta-5Z,13E-dien-1-oate]
- Percentage Positive Cells (Thy 1; anti-IgD stimulated mice, 20 μg days 3 and 4, day 7 (PBS 14.3)): 23 ± 10%
- Mean Channel Log Fluorescence (Thy 1; anti-IgD stimulated mice, 20 μg days 3 and 4, day 7 (PBS 97)): 98 ± 0
- Percentage Positive Cells (Thy 1; unstimulated mice, 20 μg (PBS 9.3)): 25.4 ± 3%
- Mean Channel Log Fluorescence (Thy 1; unstimulated mice, 20 μg (PBS 91)): 92 ± 3
- cell surface density and distribution ([1]; anti-IgD stimulated mice, 20 μg days 3 and 4, day 7): identical cell surface density and distribution as the PBS treated group
- cell surface density and distribution ([1]; unstimulated mice, 20 μg): does not effect basal cell surface density or distribution of leukocyte membrane proteins
- IgG1 ± SD (IgG1; 2 μg IP days 3 and 4, day 7 (control 4808)): 3220 ± 985 µg/mL
- IgG1 ± SD (IgG1; 2 μg IP days 3 and 4, day 8 (control 13818)): 12947 ± 2195 µg/mL
- IgG1 ± SD (IgG1; 2 μg IP days 3 and 4, day 9 (control 17700)): 19938 ± 3279 µg/mL
- IgG1 ± SD (IgG1; 2 μg IP days 3 and 4, day 11 (control 17100)): 17589 ± 1923 µg/mL
- IgG1 ± SD (IgG1; 2 μg IP days 3 and 4, day -1 baseline before treatment): 215 ± 124 µg/mL
- IgG1 ± SD (IgG1; 5 μg IP days 3 and 4, day 7): 6902 ± 3604 µg/mL
- IgG1 ± SD (IgG1; 5 μg IP days 3 and 4, day 8): 18202 ± 5327 µg/mL
- IgG1 ± SD (IgG1; 5 μg IP days 3 and 4, day 9): 27069 ± 3257 µg/mL
- IgG1 ± SD (IgG1; 5 μg IP days 3 and 4, day 11): 23205 ± 6506 µg/mL
- IgG1 ± SD (IgG1; 5 μg IP days 3 and 4, day -1 baseline before treatment): 248 ± 189 µg/mL
- IgG1 ± SD (IgG1; 10 μg IP days 3 and 4, day 7): 6952 ± 3410 µg/mL
- IgG1 ± SD (IgG1; 10 μg IP days 3 and 4, day 8): 17649 ± 3158 µg/mL
- IgG1 ± SD (IgG1; 10 μg IP days 3 and 4, day 9): 26978 ± 11752 µg/mL
- IgG1 ± SD (IgG1; 10 μg IP days 3 and 4, day 11): 26361 ± 6660 µg/mL
- IgG1 ± SD (IgG1; 10 μg IP days 3 and 4, day -1 baseline before treatment): 166 ± 14 µg/mL
- IgG1 ± SD (IgG1; 20 μg IP days 3 and 4, day 7): 6816 ± 3349 µg/mL
- IgG1 ± SD (IgG1; 20 μg IP days 3 and 4, day 8): 16838 ± 4174 µg/mL
- IgG1 ± SD (IgG1; 20 μg IP days 3 and 4, day 9): 23900 ± 11791 µg/mL
- IgG1 ± SD (IgG1; 20 μg IP days 3 and 4, day 11): 24998 ± 7169 µg/mL
- IgG1 ± SD (IgG1; 20 μg IP days 3 and 4, day -1 baseline before treatment): 255 ± 66 µg/mL
- IgG1 ± SD (IgG1; 40 μg IP days 3 and 4, day 7): 5168 ± 2391 µg/mL
- IgG1 ± SD (IgG1; 40 μg IP days 3 and 4, day 9): 24337 ± 4729 µg/mL
- IgG1 ± SD (IgG1; 40 μg IP days 3 and 4, day 11): 25930 ± 4376 µg/mL

Source: patent US5157052A, “Method for inhibiting IgE production” (priority 1990, dated 1992)
